Data from ChEMBL document CHEMBL1201862, “PubChem BioAssay data set” (2004).
Calls of active or inactive are those of the source.

Columns and labels:
[1] = target: Ras and Rab interactor 1/Tyrosine-protein kinase ABL1 (Homo sapiens, UniProt P00519+Q13671); type: functional;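 further: biochemical TR-FRET dose-response test measuring inhibition of binding between Rin1 and Abl proteins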
Genome polyprotein [2] = target: Genome polyprotein (dengue virus type 2, UniProt P29990); assay: flavivirus cap methylation enzyme inhibition – biochemical, confirmation dose response, primary screen (AID 588689); type: functional
[3] = target: T1, Mannose-6-phosphate isomerase (Homo sapiens, UniProt P34949); assay: MPI enzyme activity inhibition – biochemical, fluorescence intensity, coupled assay, primary screen (AID 1209)
T1 sequence (P34949 whole entry): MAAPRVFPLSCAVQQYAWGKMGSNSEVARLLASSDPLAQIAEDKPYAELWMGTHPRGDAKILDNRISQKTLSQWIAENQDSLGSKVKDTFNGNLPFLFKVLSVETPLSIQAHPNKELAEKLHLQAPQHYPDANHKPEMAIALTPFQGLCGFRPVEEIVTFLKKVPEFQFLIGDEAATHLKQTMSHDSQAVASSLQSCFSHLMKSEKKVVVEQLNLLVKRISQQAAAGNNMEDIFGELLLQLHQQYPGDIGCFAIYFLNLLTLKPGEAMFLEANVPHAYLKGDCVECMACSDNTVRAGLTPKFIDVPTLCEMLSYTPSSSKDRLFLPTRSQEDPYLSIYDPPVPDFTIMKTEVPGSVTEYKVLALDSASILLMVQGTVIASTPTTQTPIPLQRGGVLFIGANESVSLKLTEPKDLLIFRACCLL

[4] = target: T1, Mannose-6-phosphate isomerase; assay: MPI inhibition at elevated mannose 6-phosphate – biochemical, fluorescence intensity, high mannose 6-phosphate, primary screen (AID 1220)
[5] = MIN6 cell viability loss – mouse insulinoma, cytotoxicity control, dose response (AID 2122); type: functional;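 further: confirmatory high-throughput counterscreen run to flag cytotoxic compounds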
[6] = decrease of insulin promoter-GFP reporter – imaging, high-content screening, mouse beta cells (AID 1628); type: functional; conditions: MIN6
HEK293 [7] = assay: cells; type: functional, cell-based; conditions: Homo sapiens
HEK293 [8] = assay: cells; type: functional, cell-based; conditions: Homo sapiens; remark: listed apart in the source
HEK293 [9] = assay: NOD2 signaling inhibitors in MDP-stimulated cells, cell-based, uHTS, luminescence (AID 2001); type: functional; conditions: Homo sapiens
Streptococcus = assay: GAS UMAA2166 growth inhibition – luminescence, BacTiterGlo, counter-screen for streptokinase expression inhibitor project, dose response (AID 1915); type: functional, organism-based;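 further: potency for reduction of bacterial viability or growth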
Genome polyprotein [10] = target: Genome polyprotein (Hepatitis C virus, UniProt Q2Q167); assay: disruption of hepatitis C core self-association – biochemical, TR-FRET, dose response (AID 2159); parameters: species or system Hepacivirus hominis;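 further: blocks dimerization of HCV core protein measured by TR-FRET between tagged core106 pairs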
[11] = test system: Streptococcus sp. 'group A'; assay: Streptococcus pyogenes SK(-)GAS viability under kanamycin – luminescence, BacTiterGlo, confirmation, counter-screen for streptokinase expression inhibitor project, dose response (AID 1900); type: functional, organism-based
HEK293 [12] = assay: inhibition of NOD1-driven NF-kB reporter – cell-based, luminescence, uHTS, primary screen (AID 1578); type: functional; conditions: Homo sapiens
[13] = A Cell Based Assay for the Identification of Probe candidate Compounds with Anti- Venezuelan Equine Encephalitis virus. [Related pubchem assays: 2409, 2419, 1621, 2238, 2405, 2024, 2065, 2402, 2414, 1635, 1650, 2244 ]; type: functional
Vero [14] = assay: Vero 76 cell viability after compound exposure – Vero 76 cells, synthesized analogs, cytotoxicity control for West Nile virus antiviral project, SAR follow-up (AID 2414); type: functional; conditions: Chlorocebus sabaeus
Vero [15] = assay: Vero cell viability after compound exposure – synthesized analogs, set II, cytotoxicity control for West Nile virus antiviral project, SAR follow-up (AID 2402); type: functional; conditions: Chlorocebus sabaeus
Bcl-2-related protein A1 [16] = target: T2, Bcl-2-related protein A1 (Mus musculus, UniProt Q07440); assay: Bfl-1 binding inhibitors, SAR follow-up, biochemical, fluorescence polarization (AID 1070)
T2 sequence (Q07440 whole entry): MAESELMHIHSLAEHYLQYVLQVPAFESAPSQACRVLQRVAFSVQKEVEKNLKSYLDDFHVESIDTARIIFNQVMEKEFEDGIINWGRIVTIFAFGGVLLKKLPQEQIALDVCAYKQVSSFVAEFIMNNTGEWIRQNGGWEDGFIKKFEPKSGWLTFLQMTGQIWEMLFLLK

[17] = target: Glyceraldehyde-3-phosphate dehydrogenase (Homo sapiens, UniProt P04406)
Bcl-2-related protein A1 [18] = target: T2, Bcl-2-related protein A1; assay: small-molecule antagonists of Bfl-1/BH3 interaction – biochemical, TR-FRET, mouse Bfl-1, confirmation (AID 621);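 further: TR-FRET binding of GST-Bfl-1 to FITC-labelled Bid peptide via terbium antibody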
[19] = target: Sphingosine 1-phosphate receptor 2 (Homo sapiens, UniProt O95136); assay: Dose Response Cell Based Assay for Agonists of the S1P2 Receptor. [Related pubchem assays: 729, 736, 843 ]; type: functional
Aminopeptidase N = target: T3, Aminopeptidase N (Plasmodium falciparum FcB1/Columbia, UniProt O96935); assay: malaria alanyl aminopeptidase activity blockers – biochemical, fluorogenic H-Leu-NHMec substrate, 1536-well (AID 1445); parameters: species or system Plasmodium falciparum 3D7, 3D7
T3 sequence (O96935 whole entry): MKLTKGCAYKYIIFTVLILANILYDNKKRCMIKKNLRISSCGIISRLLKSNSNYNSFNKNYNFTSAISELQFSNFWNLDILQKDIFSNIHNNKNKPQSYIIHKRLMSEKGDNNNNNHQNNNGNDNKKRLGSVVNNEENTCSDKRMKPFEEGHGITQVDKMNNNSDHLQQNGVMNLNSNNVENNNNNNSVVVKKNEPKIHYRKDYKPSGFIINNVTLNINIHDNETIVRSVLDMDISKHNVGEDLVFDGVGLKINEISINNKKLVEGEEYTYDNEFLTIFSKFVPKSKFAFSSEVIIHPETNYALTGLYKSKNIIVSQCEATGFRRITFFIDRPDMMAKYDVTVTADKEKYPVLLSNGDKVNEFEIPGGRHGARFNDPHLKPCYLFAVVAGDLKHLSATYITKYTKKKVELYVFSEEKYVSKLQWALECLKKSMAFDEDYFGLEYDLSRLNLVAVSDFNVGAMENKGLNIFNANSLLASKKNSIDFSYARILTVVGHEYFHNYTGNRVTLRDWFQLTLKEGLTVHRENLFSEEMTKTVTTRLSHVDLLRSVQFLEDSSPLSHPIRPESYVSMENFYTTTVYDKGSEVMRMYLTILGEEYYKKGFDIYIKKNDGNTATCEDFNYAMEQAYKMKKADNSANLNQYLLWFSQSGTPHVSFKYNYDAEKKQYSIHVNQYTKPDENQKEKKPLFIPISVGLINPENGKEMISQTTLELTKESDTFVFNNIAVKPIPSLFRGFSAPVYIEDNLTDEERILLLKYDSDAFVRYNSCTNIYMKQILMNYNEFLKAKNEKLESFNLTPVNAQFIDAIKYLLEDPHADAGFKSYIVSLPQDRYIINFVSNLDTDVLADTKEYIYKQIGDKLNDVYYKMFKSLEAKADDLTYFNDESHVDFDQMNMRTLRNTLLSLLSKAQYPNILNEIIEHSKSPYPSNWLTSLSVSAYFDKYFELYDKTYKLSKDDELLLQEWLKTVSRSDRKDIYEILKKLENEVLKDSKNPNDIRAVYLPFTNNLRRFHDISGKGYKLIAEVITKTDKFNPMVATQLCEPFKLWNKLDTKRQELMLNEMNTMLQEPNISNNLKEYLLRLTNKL

Chain of Glyceraldehyde-3-phosphate dehydrogenase (P04406 whole entry): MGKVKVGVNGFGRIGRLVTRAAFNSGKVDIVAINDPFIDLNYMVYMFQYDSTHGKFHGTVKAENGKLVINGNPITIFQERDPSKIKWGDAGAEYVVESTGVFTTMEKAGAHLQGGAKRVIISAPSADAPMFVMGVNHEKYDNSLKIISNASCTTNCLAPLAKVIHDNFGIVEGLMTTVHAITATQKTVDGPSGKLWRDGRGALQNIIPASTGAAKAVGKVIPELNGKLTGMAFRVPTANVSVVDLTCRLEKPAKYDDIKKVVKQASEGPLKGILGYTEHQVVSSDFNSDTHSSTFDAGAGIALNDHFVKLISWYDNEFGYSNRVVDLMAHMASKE
Chain of Ras and Rab interactor 1/Tyrosine-protein kinase ABL1 (P00519 whole entry): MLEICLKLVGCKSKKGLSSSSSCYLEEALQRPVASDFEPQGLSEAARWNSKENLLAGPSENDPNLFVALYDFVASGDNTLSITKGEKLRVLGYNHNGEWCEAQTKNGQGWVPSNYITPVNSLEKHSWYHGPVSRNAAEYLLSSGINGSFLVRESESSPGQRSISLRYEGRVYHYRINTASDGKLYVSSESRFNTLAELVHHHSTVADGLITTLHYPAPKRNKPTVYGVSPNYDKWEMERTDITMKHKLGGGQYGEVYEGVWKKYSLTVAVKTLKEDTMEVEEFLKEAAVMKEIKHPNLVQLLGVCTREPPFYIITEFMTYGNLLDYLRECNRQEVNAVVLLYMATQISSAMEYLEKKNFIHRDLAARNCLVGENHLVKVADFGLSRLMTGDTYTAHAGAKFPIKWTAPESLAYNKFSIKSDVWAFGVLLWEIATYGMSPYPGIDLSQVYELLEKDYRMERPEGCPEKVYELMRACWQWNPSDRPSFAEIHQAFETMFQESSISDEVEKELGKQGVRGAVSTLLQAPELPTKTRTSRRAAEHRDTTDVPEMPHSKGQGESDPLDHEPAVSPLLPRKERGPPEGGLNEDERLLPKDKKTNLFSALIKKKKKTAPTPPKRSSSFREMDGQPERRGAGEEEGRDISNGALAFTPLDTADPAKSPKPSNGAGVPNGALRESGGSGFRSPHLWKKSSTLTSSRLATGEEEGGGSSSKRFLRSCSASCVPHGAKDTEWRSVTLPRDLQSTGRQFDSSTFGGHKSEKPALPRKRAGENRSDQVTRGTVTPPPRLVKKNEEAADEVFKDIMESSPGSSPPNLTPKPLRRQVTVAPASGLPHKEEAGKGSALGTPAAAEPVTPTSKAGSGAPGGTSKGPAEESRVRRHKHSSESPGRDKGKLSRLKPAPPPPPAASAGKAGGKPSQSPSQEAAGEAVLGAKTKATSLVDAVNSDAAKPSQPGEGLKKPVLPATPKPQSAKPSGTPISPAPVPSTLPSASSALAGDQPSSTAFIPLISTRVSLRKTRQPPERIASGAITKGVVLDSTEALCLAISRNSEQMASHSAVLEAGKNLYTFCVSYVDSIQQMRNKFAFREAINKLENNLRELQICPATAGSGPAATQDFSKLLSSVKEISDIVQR
Chain of Ras and Rab interactor 1/Tyrosine-protein kinase ABL1 (Q13671 whole entry): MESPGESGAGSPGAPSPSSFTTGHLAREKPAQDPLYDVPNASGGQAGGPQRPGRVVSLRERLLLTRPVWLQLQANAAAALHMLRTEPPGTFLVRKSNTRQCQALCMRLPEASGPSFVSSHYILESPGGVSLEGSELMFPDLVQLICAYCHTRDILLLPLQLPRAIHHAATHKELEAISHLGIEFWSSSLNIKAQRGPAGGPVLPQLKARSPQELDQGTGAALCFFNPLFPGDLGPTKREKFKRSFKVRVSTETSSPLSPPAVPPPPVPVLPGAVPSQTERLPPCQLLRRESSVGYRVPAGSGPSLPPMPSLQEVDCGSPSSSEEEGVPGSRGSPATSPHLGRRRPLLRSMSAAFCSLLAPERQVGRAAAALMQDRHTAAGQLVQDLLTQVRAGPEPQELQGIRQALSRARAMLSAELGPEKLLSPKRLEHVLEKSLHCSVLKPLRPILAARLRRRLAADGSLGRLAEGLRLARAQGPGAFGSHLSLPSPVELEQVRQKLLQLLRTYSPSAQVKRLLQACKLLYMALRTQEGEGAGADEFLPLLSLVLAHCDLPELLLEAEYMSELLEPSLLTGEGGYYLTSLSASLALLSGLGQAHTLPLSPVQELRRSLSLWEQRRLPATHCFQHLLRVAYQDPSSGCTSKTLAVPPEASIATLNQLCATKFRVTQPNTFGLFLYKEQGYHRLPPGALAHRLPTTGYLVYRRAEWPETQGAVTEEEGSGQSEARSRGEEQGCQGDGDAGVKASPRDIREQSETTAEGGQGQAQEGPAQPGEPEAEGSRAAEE
Chain of Sphingosine 1-phosphate receptor 2 (O95136 whole entry): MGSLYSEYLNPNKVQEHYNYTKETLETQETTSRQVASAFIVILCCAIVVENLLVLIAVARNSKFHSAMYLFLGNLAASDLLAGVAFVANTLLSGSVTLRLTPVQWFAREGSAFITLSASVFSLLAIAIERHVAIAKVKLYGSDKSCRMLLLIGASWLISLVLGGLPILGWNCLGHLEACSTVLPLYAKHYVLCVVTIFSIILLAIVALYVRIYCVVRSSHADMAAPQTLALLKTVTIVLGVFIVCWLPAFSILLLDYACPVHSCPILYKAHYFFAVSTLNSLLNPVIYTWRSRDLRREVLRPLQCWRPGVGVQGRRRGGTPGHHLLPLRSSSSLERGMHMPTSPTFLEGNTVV
Chain of Genome polyprotein (Hepatitis C virus, UniProt Q2Q167) (Q2Q167 whole entry): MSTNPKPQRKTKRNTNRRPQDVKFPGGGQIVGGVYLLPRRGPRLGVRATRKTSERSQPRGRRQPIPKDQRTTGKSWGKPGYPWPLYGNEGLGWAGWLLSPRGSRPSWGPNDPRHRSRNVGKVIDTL
Chain of Genome polyprotein (dengue virus type 2, UniProt P29990) (P29990 2492-3391 limits assumed): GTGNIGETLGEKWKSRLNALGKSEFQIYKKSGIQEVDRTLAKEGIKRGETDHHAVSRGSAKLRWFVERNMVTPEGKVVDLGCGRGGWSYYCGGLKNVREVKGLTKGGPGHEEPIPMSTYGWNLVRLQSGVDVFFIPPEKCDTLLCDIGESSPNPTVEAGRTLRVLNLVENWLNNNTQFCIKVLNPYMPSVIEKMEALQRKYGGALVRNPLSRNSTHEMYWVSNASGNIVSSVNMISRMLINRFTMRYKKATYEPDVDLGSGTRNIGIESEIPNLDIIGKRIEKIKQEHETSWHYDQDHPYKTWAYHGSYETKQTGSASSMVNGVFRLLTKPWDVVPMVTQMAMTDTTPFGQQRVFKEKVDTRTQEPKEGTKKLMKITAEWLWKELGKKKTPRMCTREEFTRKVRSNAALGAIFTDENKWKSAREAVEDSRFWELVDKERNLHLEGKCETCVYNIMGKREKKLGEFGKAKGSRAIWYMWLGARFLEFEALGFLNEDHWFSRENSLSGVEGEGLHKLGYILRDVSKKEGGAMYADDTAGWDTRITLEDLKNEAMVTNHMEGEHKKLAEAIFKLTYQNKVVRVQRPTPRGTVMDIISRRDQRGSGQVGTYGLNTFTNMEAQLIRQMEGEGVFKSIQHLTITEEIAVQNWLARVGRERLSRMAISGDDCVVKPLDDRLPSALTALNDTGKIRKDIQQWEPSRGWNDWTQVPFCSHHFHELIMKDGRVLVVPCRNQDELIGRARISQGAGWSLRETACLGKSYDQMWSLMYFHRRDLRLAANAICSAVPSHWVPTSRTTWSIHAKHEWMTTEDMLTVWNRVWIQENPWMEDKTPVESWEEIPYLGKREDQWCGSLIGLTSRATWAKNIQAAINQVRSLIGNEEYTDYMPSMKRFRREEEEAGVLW

## Oc1ccc(/C=N/N2CCOCC2)c(O)c1O
[1]
  IC50: > 73.5 µM (inactive)
Genome polyprotein [2]
  IC50: 45 µM (active)
[3]
  IC50: 11.6 µM (active)
[4]
  IC50: 10.3 µM (active)

## CC(C)=CCc1c(O)cc2oc3c(CC=C(C)C)c(O)c(O)c(CC=C(C)C)c3c(=O)c2c1O [GARCINONE E]
[5]
  IC50: 3.46 µM (active)
[6]
  IC50: 2.79 µM (active)
HEK293 [7]
  IC50: 6.77 µM (active)
HEK293 [8]
  IC50: > 20 µM (inactive)
HEK293 [9]
  IC50: 4.65 µM (inactive)
Streptococcus
  EC50: 3.02 µM (active)
Genome polyprotein [10]
  IC50: > 49.8 µM (not active)
[11]
  EC50: 0.813 µM (active)
HEK293 [12]
  EC50: 4.78 µM (active)

## COc1cccc2c(=O)n(-c3ccccc3)c(SCC(=O)Nc3ccc4c(c3)CCC4)nc12
[13]
  IC50: < 0.26 µM (active)
Vero [14]
  CC50: < 0.26 µM (active)
Vero [15]
  CC50: > 200 µM (active)

## O=C1C(Cl)=C(Nc2ccc(F)cc2)C(=O)N1c1ccc(Cl)c(Cl)c1
Bcl-2-related protein A1 [16]
  IC50: > 100 µM (not active)
[17]
  IC50: > 100 µM (not active)
Bcl-2-related protein A1 [18]
  IC50: 96.5 µM (active)

## O=C(Nc1ccccn1)Nc1cccs1
[19]
  EC50: > 50 µM (not active)
Aminopeptidase N
  IC50: 61.8 µM (active)
